Here are results for one compound from patent publication US11191795B2, “Herbal compositions and methods for treating herpes” (priority 2019, dated 2021).

For this data set, the system named is cold sores. The data set is classed as in vivo, human.

On to `Nc1nc2c(ncn2COCCO)c(=O)[nH]1` [acyclovir], for which the “response of cold sores to treatment” value (Example 3, person, history, oral and topical) is “unresponsiveness”. In addition, the side effects result (human, in vivo, po) was “dizziness”.
